Laboratory results as given in patent US4139628A, “Amino-spiro[oxa(or thia)cycloalkane-penam]-carboxylic acid derivatives” (U C B, Societe Anonyme, priority 1977, dated 1979).

Experiments:
[1] = test system: Escherichia coli B AMPI-R; assay: minimum inhibitory concentration (MIC), gelose culture medium in Petri dishes; assay type: cell-based; conditions: relative MIC (ampicillin = 1) on E. COLI B versus its beta-lactamase hyperproducer mutant
Description: This is a mutant of the preceding strain, which we have produced.
(§1) The products to be tested are introduced in increasing concentrations into a gelose culture medium in Petri dishes. A multiple inoculator is used to deposit simultaneously drops (10 microliters) of inoculum (suspension of about 10^5 bacteria per ml) onto the surface of the medium. After incubation at 37° C. for 24 hours, the growth of the bacteria is observed. By definition, the MIC is expressed as the minimum concentration of the tested compounds which inhibits the multiplication of the bacteria. In the results which follow, however, the MIC is given as being equal to 1 for the reference compounds and the activity figures given for the tested compounds of general formula (I) are, therefore, relative values. This presentation of the results is more correct and the most reproducible, because, for one and the same bacterial strain, different MIC values can be observed if they are measured at different times. This is bound up with the "seasonal" variations in the strains and their nutrient medium.

[2] = test system: beta-lactamase TEM; assay: hydrolysis kinetics in the presence of beta-lactamase (residual activity); assay type: biochemical, Gram-negative bacteria; conditions: after incubation for 6 minutes
[3] = test system: Escherichia coli K 12-44 S; assay type: cell-based; conditions: E.COLI K 12-44S; relative to ampicillin = 1
Description: It is very sensitive to penicillins due to hyperpermeability.
as §1

[4] = biological target: T1, beta-lactamase P 99 (Enterobacter cloacae, UniProt P05364); assay: hydrolysis kinetics in the presence of beta-lactamase (residual activity); assay type: biochemical, Gram-negative bacteria; conditions: as compared with ampicillin
T1 construct: source not detailed
T1 sequence (P05364 21-381): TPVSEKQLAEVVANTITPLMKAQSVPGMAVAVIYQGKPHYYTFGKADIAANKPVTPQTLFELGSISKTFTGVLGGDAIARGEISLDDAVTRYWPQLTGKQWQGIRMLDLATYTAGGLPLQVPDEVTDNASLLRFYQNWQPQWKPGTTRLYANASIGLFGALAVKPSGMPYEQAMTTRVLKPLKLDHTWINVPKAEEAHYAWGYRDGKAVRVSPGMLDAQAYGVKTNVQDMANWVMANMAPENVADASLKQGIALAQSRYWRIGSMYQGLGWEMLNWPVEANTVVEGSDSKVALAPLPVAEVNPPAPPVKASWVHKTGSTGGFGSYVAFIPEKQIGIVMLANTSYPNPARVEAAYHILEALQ

SMILES	difference between the activity on E. COLI B and on E. COLI B Ampi-R (factor) [1]	Remaining activity as percentage [2] [%]	MIC, relative value [3]	resistance to beta-lactamase, in words [4]
N[C@@H](C(=O)NC1C(=O)N2C1SC1(CCOCC1)C2C(=O)O)c1ccccc1 (single isomer, unassigned) [Compound B, 6-(2"-amino-2"-phenylacetamido)-2',3',5',6'-tetrahydro-spiro[penam-2,4'-[4H]pyran]-3-carboxylic acid]	3.5	87	1.9	–
NC(C(=O)NC1C(=O)N2C1SC1(CCSCC1)C2C(=O)O)c1ccccc1 (stereo not drawn) [Compound F, 6-(2"-amino-2"-phenylacetamido)-2',3',5',6'-tetrahydro-spiro[penam-2,4'-[4H]thiopyran]-3-carboxylic acid]	–	–	15	increased resistance
NC(C(=O)NC1C(=O)N2C1SC1(CC[S+]([O-])CC1)C2C(=O)O)c1ccccc1 (stereo not drawn) [Compound J, 6-(2"-amino-2"-phenylacetamido)-2',3',5',6'-tetrahydro-spiro[penam-2,4'-[4H]thiopyran]-3-carboxylic acid 1'-oxide]	–	–	–	No change in behavior
